Reference: patent publication US20230095520A1, “PHARMACEUTICAL COMPOSITION FOR PREVENTING OR TREATING CANCER COMPRISING AZOLE DERIVATIVES OR PHARMACEUTICALLY ACCEPTABLE SALT THEREOF” (Yungjin Pharm. Co., Ltd., priority 2020, published 2023)

Assays:
MDA-MB-468 cells = assay: MDA-MB-468 cell proliferation inhibition (MTT); assay type: cell-based; conditions: MDA-MB-468 proliferation
Method: MDA-MB-468 cells are one of the triple-negative breast cancer (TNBC: negative for the expression of estrogen receptor, progesterone receptor and HER2) cells known as a malignant tumor that is difficult to diagnose at an early stage and has a high metastatic capacity, and these cells are used to test inhibition of proliferation and survival of breast cancer cells.
MDA-MB-468 cells cultured in a 96-well cell culture plate were treated with the compound of the present invention and cultured for 72 hours. Thereafter, the antiproliferative effect of the compound was assayed by the MTT method using a tetrazolium salt.

[1] = biological target: T1, Recombinant purified human CDK7 (Homo sapiens, UniProt P50613); assay: CDK7 activity inhibition, ADP-Glo kinase assay; assay type: biochemical; conditions: ATP 90 μM, MBP substrate, 2 hours 30° C.
T1 construct: purchased ThermoFisher PV3868
Procedure, shortened: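 Human recombinant CDK7 (50 ng per reaction) in 40 mM Tris-Cl pH 7.5, 20 mM MgCl2, 0.1 mg/ml BSA, 50 μM DTT, with 1% DMSO. The reaction used 90 μM ATP and 0.2 μg/μl MBP substrate for 2 h at 30 °C. ADP formed was quantified by ADP-Glo luminescence to derive inhibition.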

MV-4-11 cells = assay: MV-4-11 cell proliferation inhibition (CCK-8); assay type: cell-based; conditions: Homo sapiens, MV4-11, MV-4-11 proliferation, 72 hours
Procedure, shortened: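 The FLT3-mutant AML line MV-4-11 was exposed to compound for 72 h. Antiproliferative effect was read with the tetrazolium-based CCK-8 method.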

HepG2 = assay: Cancer cell proliferation GI50 (CCK-8); assay type: cell-based, human; conditions: Homo sapiens, HepG2, liver cancer, 72 hours
Method: (§1) The proliferation effect of SY-1365, which is known to have a proliferation inhibitory effect on various carcinoma cells, and the compound of the present invention on various cancer cells was measured and compared as GI50 (half maximal growth inhibitory concentration, the concentration at which cell proliferation is reduced by half).
(§2) Various carcinoma cells were cultured at 37° C. in a humidified condition in the presence of 5% CO2. Each cell cultured in a 96-well cell culture plate was treated with the compound of the present invention and cultured for 72 hours.
(§3) In this example, in order to confirm the proliferation inhibitory effect on various cancer cells, Compound 121 was tested as follows.
(§4) The cells were cultured with a culture medium shown in Table 9 below at 37° C. in a humidified condition in the presence of 5% CO2. Each cell cultured in a 96-well cell culture plate was treated with the compound of the present invention and cultured for 72 hours.

MOLM-13-GFP human cells = assay: MOLM-13 orthotopic transplantation animal model; assay type: in vivo; conditions: NSG mouse, tail vein, 1 or 2 mg/kg (2D on/5D off) or 2 mg/kg BIW, 3 to 4 weeks, versus control group
Method: MOLM-13 cells showing cancer cell inhibitory effect were selected, and Compound 121 was tested as follows using an orthotopic transplantation model.
The animal model used for efficacy evaluation is an NSG (Jackson lab, #005557, USA) mouse lacking the IL-2 receptor gamma gene, in which the immune activity of T cells, B cells, and NK cells is suppressed, and the efficacy was evaluated in an orthotopic transplantation model of MOLM-13-GFP human cells. For the induction method, an orthotopic transplantation model was induced by injecting the cells in an amount of 5×10^5 cells/200 ul/mouse into the tail vein route. Four test groups were G1 excipient control group vehicle (saline), G2 No. 121 1 mg/kg (2D on/5D off), G3 No. 121 2 mg/kg (2D on/ 5D off), and G4 No. 121 2 mg/kg (BIW), and 5 animals per group were set. From the day after cell injection, the tail vein administration of Compound 121 was started at each dose and regimen for 3 to 4 weeks.

OCI-AML2 = assay: Cancer cell proliferation GI50 (CCK-8); assay type: cell-based; conditions: Homo sapiens, OCI-AML2, acute myeloid leukemia, 72 hours
Method: as §3, §4

MOLM/DEC-5 = assay: Cancer cell proliferation GI50 (CCK-8); assay type: cell-based; conditions: MOLM/DEC-5, acute myeloid leukemia, 72 hours
Method: as §3, §4

MOLT4 = assay: Cancer cell proliferation GI50 (CCK-8); assay type: cell-based; conditions: Homo sapiens, MOLT-4, MOLT4, acute lymphocytic leukemia, 72 hours
Method: as §3, §4

MDA-MB-468 = assay: Cancer cell proliferation GI50 (CCK-8); assay type: cell-based; conditions: Homo sapiens, MDA-MB-468, breast cancer, 72 hours
Method: as §1, §2, §3, §4

Hep3B = assay: Cancer cell proliferation GI50 (CCK-8); assay type: cell-based; conditions: Homo sapiens, liver cancer, 72 hours
Method: as §1, §2, §3, §4

Huh7 = assay: Cancer cell proliferation GI50 (CCK-8); assay type: cell-based; conditions: Homo sapiens, Huh7 (Huh-7), liver cancer, 72 hours
Method: as §1, §2, §3, §4

MDA-MB-231 = assay: Cancer cell proliferation GI50 (CCK-8); assay type: cell-based; conditions: Homo sapiens, MDA-MB-231, breast cancer, 72 hours
Method: as §1, §2, §3, §4

T1 sequence (P50613 whole entry): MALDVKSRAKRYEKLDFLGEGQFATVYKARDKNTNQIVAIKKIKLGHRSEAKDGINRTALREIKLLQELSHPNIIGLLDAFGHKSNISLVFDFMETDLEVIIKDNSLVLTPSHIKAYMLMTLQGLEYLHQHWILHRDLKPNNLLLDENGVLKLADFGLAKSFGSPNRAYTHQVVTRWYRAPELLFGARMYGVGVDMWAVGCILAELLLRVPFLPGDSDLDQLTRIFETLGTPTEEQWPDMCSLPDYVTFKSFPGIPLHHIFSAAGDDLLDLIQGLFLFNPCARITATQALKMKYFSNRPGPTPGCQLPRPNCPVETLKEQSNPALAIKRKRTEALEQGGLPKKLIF
T1 sequence (P51946 whole entry partner): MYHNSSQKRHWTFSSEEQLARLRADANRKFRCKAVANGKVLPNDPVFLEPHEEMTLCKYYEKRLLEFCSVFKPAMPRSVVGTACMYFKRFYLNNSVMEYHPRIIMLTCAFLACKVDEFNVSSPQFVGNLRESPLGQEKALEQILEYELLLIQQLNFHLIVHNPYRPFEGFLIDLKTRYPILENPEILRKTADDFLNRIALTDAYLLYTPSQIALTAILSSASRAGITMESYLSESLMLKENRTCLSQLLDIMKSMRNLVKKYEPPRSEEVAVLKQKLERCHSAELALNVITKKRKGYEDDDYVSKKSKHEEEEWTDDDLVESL
T1 sequence (P51948 whole entry partner): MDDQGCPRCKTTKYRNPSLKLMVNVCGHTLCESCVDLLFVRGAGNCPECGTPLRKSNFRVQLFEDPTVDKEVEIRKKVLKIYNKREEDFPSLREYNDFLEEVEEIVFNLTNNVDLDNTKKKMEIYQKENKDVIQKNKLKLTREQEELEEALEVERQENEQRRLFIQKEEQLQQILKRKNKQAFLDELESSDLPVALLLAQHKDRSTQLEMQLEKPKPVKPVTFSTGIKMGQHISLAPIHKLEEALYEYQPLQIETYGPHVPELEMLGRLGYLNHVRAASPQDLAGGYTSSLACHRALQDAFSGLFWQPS

`CCc1cnc(NC(=O)[C@@H](C)c2cccc(-c3cnc(NC(=O)/C=C/CN(C)C)c(C#N)c3)c2)s1` [Compound 121, (S,E)-N-(3-cyano-5-(3-(1-((5-ethylthiazol-2-yl)amino)-1-oxopropan-2-yl)phenyl)pyridin-2-yl)-4-(dimethylamino)but-2-enamide] showed an IC50 (MDA-MB-468 cells; Homo sapiens, MDA-MB-468, 72 h) of no more than 14 nM, an IC50 (MDA-MB-468 cells; 72 hours) of 14 nM and an IC50 [1] of 4.2 nM. For the same compound, the IC50 (MV-4-11 cells) was 4.3 nM, the GI50 (HepG2) was 14 nM and the survival rate (MOLM-13-GFP human cells; FIG. 11) was “increase in the survival rate”. For the same compound, the “change in body weight” value (MOLM-13-GFP human cells; FIG. 12) was “constant amount of body weight gain”, the GI50 (OCI-AML2) was 7.74 nM and the GI50 (MOLM/DEC-5) was 14.9 nM. It also gave a GI50 (MOLT4) of 4.51 nM, a GI50 (MDA-MB-468) of 4 nM and a GI50 (Hep3B) of 9 nM. The GI50 (Huh7) was 7 nM and the GI50 (MDA-MB-231) was 6 nM.
